Source: patent US6420571B2, “Methods for preparing antiviral calanolide compounds” (Sarawak MediChem Pharmaceuticals, Inc., priority 1999, dated 2002)

Key:
[1] = tested on: pyridinone-resistant A17 virus; conditions: cited from earlier work
[2] = tested on: AZT-resistant G-9106 strain of HIV; conditions: cited from earlier work
HIV-1 [3] = conditions: down to a concentration of 0.1 μM; cited from earlier work
HIV-1 [4] = conditions: CEM-SS cells; read-out: EC50, HIV-1 replication; cited from earlier work

melting point [°C] | Compound | activity against pyridinone-resistant A17 virus [1] | activity against AZT-resistant G-9106 strain of HIV [2] | protection against the cytopathic effects of HIV-1 (HIV-1 [3]) [%] | EC50 (HIV-1 [4]) [nM]
158 to 160 | CCCc1cc(=O)oc2cc(OC(=O)C(C)(C)C)cc(O)c12 | – | – | – | –
– | CCCc1cc(=O)oc2c3c(c4c(c12)OC(C)(C)C=C4)O[C@H](C)[C@@H](C)[C@@H]3O [(+)-calanolide A] | active | active | 100 | 100
